This note sets out measurements from US20180193327A1, “PROPHYLACTIC LEUKOTRIENE INHIBITOR AND IMPLANT DISPLACEMENT THERAPY FOR PREVENTION AND TREATMENT OF CAPSULAR CONTRACTURE IN SILICONE BREAST AUGMENTATION” (priority 2017, published 2018).

The subject of data set [1] is capsular contracture in patients undergoing primary silicone gel breast augmentation. Kind of data set: Capsular contracture (Baker scale) at one year after primary silicone gel breast augmentation, retrospective review. It counts as in vivo, patients (women). As to the method: The study was performed with a retrospective review of 1122 consecutive women undergoing primary, silicone gel breast augmentation. Over time, the author added leukotriene inhibitor therapy to the postoperative treatment of patients. The first group of patients were treated without leukotriene therapy. Consecutive patients agreeing to the off-label use of leukotriene inhibitors were then studied. The second group of consecutive patients was offered Singulair therapy postoperatively while all other aspects of the surgical technique and care remained the same. Finally, the author offered Accolate therapy to the final group of patients undergoing breast augmentation.
Patients chose augmentation with either a periareolar or inframammary approach. Silicone breast augmentation procedures were performed using a standardized, dual plane technique. All patients were treated with preoperative intravenous antibiotics, either a one-gram dose of cephazolin or 600 mg of clindamycin, selected based on allergy profiles. Prior to insertion of implants, triple-antibioic irrigation (50,000 U bacitracin, 1 g Ancef, 80 mg gentamicin) with the addition of 50 ml of povidone-iodine in 500 ml of normal saline was utilized. All implants were placed with power-free glove changes, and inserted through a skin barrier/nipple shield using Tegaderm dressings. The implant displacement therapy protocol was initiated on post-operative day two.
(§1) Patients that were administered Singulair were treated according to the method described in FIGS. 1 and 2 of the present disclosure. First, patients were evaluated clinically to see if they were a candidate for breast augmentation with physical examination and medical history. The medical history review included discussion and review of liver health, current medications, and potential contraindications or drug interactions with leukotriene inhibitors. Patients were then provided an informed consent for the use of Singulair, 10 mg daily. The informed consent reviewed the potential benefits and risks of this medication which is taken as an off-label indication. Breast augmentation was performed with either smooth or textured silicone or saline implants. On the day following surgery, Singulair therapy is initiated, 10 mg QD. In the first week following surgery, the implant displacement therapy protocol was begun for patients with smooth surface silicone implants. The implant displacement therapy protocol may also be performed, if indicated, for patients with mildly textured breast implants, but not with moderately textured or highly textured devices. Monitoring for side effects from Singulair was conducted by educating patients as to the common side effects and discussing with patients noted side effects. Singulair can be discontinued if the side effects are significant. At thirty days postoperatively, the softness of the breast implants as well as the implant movement and position was evaluated to determine if capsular contracture was present. Two more months of Singulair was prescribed. Following three total months of therapy, the breasts were evaluated for the presence of capsular contracture. Patients without clinical capsular contracture, Baker I and II, were completed with therapy. Patients with clinical capsular contracture, either Baker III or IV, were treated with an additional three months of Singulair therapy as prescribed with the continuation of implant displacement therapy protocol. If patients declined to take Singulair or had side effects from the medication, implant displacement therapy protocol was continued and patients were offered 800 units-1000 units of Vitamin E daily in lieu of Singulair.
Patients that were administered Accolate were treated according to the method described in FIGS. 1 and 2 of the present disclosure. First, patients were evaluated clinically to see if they were a candidate for breast augmentation with physical examination and medical history. […]

The nature of data set [2]: Side effects and discontinuation reported by patients taking leukotriene inhibitors after primary augmentation. It counts as in vivo, patients (women). As to the method: as §1
Patients that were administered Accolate were treated according to the method described in FIGS. 1 and 2 of the present disclosure. First, patients were evaluated clinically to see if they were a candidate for breast augmentation with physical examination and medical history. The medical history review included discussion and review of liver health, current medications, and potential contraindications or drug interactions with leukotriene inhibitors. Patients were then provided an informed consent for the use of Accolate (Zafirlukast), 20 mg twice daily. Patients were counseled to take the medication at least one hour before meals. The informed consent reviews the potential benefits and risks of this medication which is taken as an off-label indication. Breast augmentation was performed with either smooth or textured silicone or saline implants. On the day following surgery, Accolate therapy was initiated, 20 mg BID. In the first week following surgery, the implant displacement therapy protocol was begun for patients with smooth surface silicone implants. The implant displacement therapy protocol may also be performed, if indicated, for patients with mildly textured breast implants, but not with moderately textured or highly textured devices. […]

Data set [3] is described as follows: Liver function studies (transaminases) during Accolate therapy after capsulectomy and implant replacement. It counts as in vivo. As to conditions: at one month postoperatively; group of 279 patients, 20 mg twice daily. As to the method:
Patients were treated with Accolate 20 mg twice daily, beginning the day after surgery. Patients with a history of hepatitis or liver disease were excluded. Patient compliance with the recommended dosage was encouraged, but patients were advised that they could discontinue the medication at any time that they experienced significant side effects. All patients receiving Accolate therapy underwent liver function studies 4 weeks after the initiation of Accolate therapy. […] Follow-up liver function studies were performed at 2-week intervals, until transaminases normalized. […] Liver function studies were repeated after 3 months of Accolate therapy for patients choosing to continue Accolate for a 6-month course.

The mark [4] stands for this setting: one year following silicone gel breast augmentation.
Where [5] appears, read: one year following silicone gel breast augmentation, patients with contracture/patients followed.

Where “and” joins values, the source holds several entries; their conditions need not be identical. Equal values may be shown once. Marks after values point to notes of the source that are not given here.

Turning to `COc1cc(C(=O)NS(=O)(=O)c2ccccc2C)ccc1Cc1cn(C)c2ccc(NC(=O)OC3CCCC3)cc12` [Accolate, Zafirlukast], the “Reduction of the encapsulation risk” value in data set [1] (addition of the drug in the first three months following augmentation, versus no leukotriene inhibitor) is recorded as “over 50%”. Also, in data set [1] (one year following primary silicone gel breast augmentation, Baker grade III or IV, three months therapy plus implant displacement protocol), the “% of Patients with Capsular Contracture” value came out at 2.19%*. Further, in data set [1] (setting [4]), the “Percentage of patients demonstrating capsular contracture, inframammary incision” value turned out to be 1.74%; the “Percentage of patients demonstrating capsular contracture, periareolar incision” value is 2.31% and 2.38%; the “Percentage of patients demonstrating capsular contracture, total (both incisions)” value amounted to 2.19%. In addition, in data set [1] (setting [5]), the “Number of patients demonstrating capsular contracture, inframammary incision” value is reported as 2/115 and the “Number of patients demonstrating capsular contracture, total (both incisions)” value was 8/375. Moreover, the “Number of patients with grade III/IV capsular contracture at three months that improved to grade II with an additional three months of therapy” value in data set [1] (primary augmentation, six months of therapy in total) is listed as “five”. Moreover, the “Capsular contracture rate compared with patients not treated with leukotriene inhibitors” value in data set [1] (three months of therapy after primary augmentation, result in words) is recorded as “significantly lower”. The “Percentage of patients discontinuing the medication because of (minor) side effects or cost” value in data set [2] (female, human, in vivo, 3 months) stood at 6.2%. In addition, the “Irreversible side effects noted in the study” value in data set [2] (human, in vivo) is “no irreversible side effects”. In addition, the “Patients who tolerated the medication well” value in data set [2] (primary augmentation study) is reported as about 95%. For the same compound, the “Number of patients with (mild) elevation of transaminases” value in data set [3] is “Two”.
